Where “and” joins values, the source holds several entries; their conditions need not be identical. Identical values can stand only once. Inconclusive results and toxic doses are left out.
Tested on: CD2F1 mice, L1210 leukemia ip, survival T/C
Test: NCI In Vivo Anticancer Drug Screen. Data for tumor model L1210 Leukemia (intraperitoneal) in CD2F1 (CDF1) mice
Details: higher = longer survival
Method in brief: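 Compound-dosed mice with transplantable tumor versus matched vehicle controls; endpoint ratio T/C reported.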

[1] = endpoint: mean survival time, dose: 25.0 mg/kg/injection, schedule: Q01DX009 (ip), vehicle: saline with Tween-80
[2] = endpoint: mean survival time, dose: 50.0 mg/kg/injection, schedule: Q01DX009 (ip), vehicle: saline with Tween-80
[3] = endpoint: mean survival time, dose: 100.0 mg/kg/injection, schedule: Q01DX009 (ip), vehicle: saline with Tween-80
[4] = endpoint: mean survival time, dose: 200.0 mg/kg/injection, schedule: Q01DX009 (ip), vehicle: saline with Tween-80
[5] = endpoint: mean survival time, dose: 400.0 mg/kg/injection, schedule: Q01DX009 (ip), vehicle: saline with Tween-80
[6] = endpoint: mean survival time, dose: 100.0 mg/kg/injection, schedule: Q04DX002 (ip), vehicle: saline with Tween-80
[7] = endpoint: mean survival time, dose: 200.0 mg/kg/injection, schedule: Q04DX002 (ip), vehicle: saline with Tween-80
[8] = endpoint: mean survival time, dose: 400.0 mg/kg/injection, schedule: Q04DX002 (ip), vehicle: saline with Tween-80

Nc1nc2c(ncn2C2OC(CO)C(O)C2O)c(=O)[nH]1 (centres undefined)
T/C [1]: 98 % of control and 105 % of control | T/C [2]: 101 % of control and 103 % of control | T/C [3]: 98 % of control and 102 % of control | T/C [4]: 95 % of control and 104 % of control | T/C [5]: 101 % of control and 104 % of control | T/C (endpoint: mean survival time, dose: 800.0 mg/kg/injection, schedule: Q01DX009 (ip), vehicle: saline with Tween-80): 98 % of control and 110 % of control | T/C (endpoint: median survival time, dose: 1000.0 mg/kg/injection, schedule: Q01DX009 (ip), vehicle: saline with Tween-80): 106 % of control | T/C (endpoint: median survival time, dose: 1500.0 mg/kg/injection, schedule: Q01DX009 (ip), vehicle: saline with Tween-80): 89 % of control | T/C (endpoint: median survival time, dose: 2000.0 mg/kg/injection, schedule: Q01DX009 (ip), vehicle: saline with Tween-80): 91 % of control and 108 % of control

CNC(=O)OCCN(C)OC
T/C (endpoint: mean survival time, dose: 100.0 mg/kg/injection, schedule: Q04DX003 (ip), vehicle: saline): 95 % of control | T/C (endpoint: mean survival time, dose: 200.0 mg/kg/injection, schedule: Q04DX003 (ip), vehicle: saline): 98 % of control | T/C (endpoint: mean survival time, dose: 400.0 mg/kg/injection, schedule: Q04DX003 (ip), vehicle: saline): 93 % of control

ClC1CCC[N-]C1.ClC1CCC[N-]C1.[Cl][Pt+2][Cl] (centres undefined)
T/C (endpoint: mean survival time, dose: 0.78 mg/kg/injection, schedule: Q01DX009 (ip), vehicle: saline): 103 % of control | T/C (endpoint: mean survival time, dose: 1.56 mg/kg/injection, schedule: Q01DX009 (ip), vehicle: saline): 94 % of control | T/C (endpoint: mean survival time, dose: 3.13 mg/kg/injection, schedule: Q01DX009 (ip), vehicle: saline): 102 % of control | T/C (endpoint: mean survival time, dose: 6.25 mg/kg/injection, schedule: Q01DX009 (ip), vehicle: saline): 96 % of control | T/C (endpoint: mean survival time, dose: 12.5 mg/kg/injection, schedule: Q01DX009 (ip), vehicle: saline): 89 % of control | T/C [2]: 108 % of control | T/C [3]: 95 % of control

CC(=O)OC1=C(C)C(c2ccc(C)cc2)OC1=O (centres undefined)
T/C (endpoint: mean survival time, dose: 12.5 mg/kg/injection, schedule: Q01DX009 (ip), vehicle: other): 101 % of control | T/C (endpoint: mean survival time, dose: 25.0 mg/kg/injection, schedule: Q01DX009 (ip), vehicle: other): 106 % of control | T/C (endpoint: mean survival time, dose: 50.0 mg/kg/injection, schedule: Q01DX009 (ip), vehicle: other): 110 % of control | T/C (endpoint: mean survival time, dose: 100.0 mg/kg/injection, schedule: Q01DX009 (ip), vehicle: other): 104 % of control | T/C (endpoint: mean survival time, dose: 200.0 mg/kg/injection, schedule: Q01DX009 (ip), vehicle: other): 104 % of control

CCOC(=O)C(=CN1CCCCCC1)C(=O)OCC
T/C [3]: 94 % of control | T/C [4]: 89 % of control | T/C [5]: 94 % of control

CC(CC1CC=CCC1)C(=O)c1ccccc1 (centres undefined)
T/C (endpoint: mean survival time, dose: 50.0 mg/kg/injection, schedule: Q04DX002 (ip), vehicle: saline with Tween-80): 100 % of control | T/C [6]: 100 % of control | T/C [7]: 93 % of control | T/C [8]: 89 % of control

CCC(C)[N+](=O)[O-] (centres undefined)
T/C (endpoint: mean survival time, dose: 50.0 mg/kg/injection, schedule: Q01DX001 (ip), vehicle: saline): 94 % of control | T/C (endpoint: mean survival time, dose: 100.0 mg/kg/injection, schedule: Q01DX001 (ip), vehicle: saline): 98 % of control | T/C (endpoint: mean survival time, dose: 200.0 mg/kg/injection, schedule: Q01DX001 (ip), vehicle: saline): 102 % of control

O=C(/C=C/c1ccccc1O)/C=C/c1ccccc1O
T/C [1]: 107 % of control | T/C (endpoint: mean survival time, dose: 25.0 mg/kg/injection, schedule: Q04DX003 (ip), vehicle: saline with Tween-80): 111 % of control | T/C [2]: 94 % of control | T/C (endpoint: mean survival time, dose: 50.0 mg/kg/injection, schedule: Q04DX003 (ip), vehicle: saline with Tween-80): 101 % of control | T/C (endpoint: mean survival time, dose: 100.0 mg/kg/injection, schedule: Q04DX003 (ip), vehicle: saline with Tween-80): 105 % of control

C1OC1CN1CCN(CC2CO2)CC1 (centres undefined)
T/C (endpoint: mean survival time, dose: 2.0 mg/kg/injection, schedule: Q03HX008 (ip), vehicle: saline): 105 % of control | T/C (endpoint: mean survival time, dose: 2.0 mg/kg/injection, schedule: Q03HX016 (ip), vehicle: saline): 98 % of control | T/C (endpoint: mean survival time, dose: 2.0 mg/kg/injection, schedule: Q03HX024 (ip), vehicle: saline): 108 % of control | T/C (endpoint: mean survival time, dose: 4.0 mg/kg/injection, schedule: Q03HX008 (ip), vehicle: saline): 108 % of control | T/C (endpoint: mean survival time, dose: 4.0 mg/kg/injection, schedule: Q03HX016 (ip), vehicle: saline): 100 % of control | T/C (endpoint: mean survival time, dose: 4.0 mg/kg/injection, schedule: Q03HX024 (ip), vehicle: saline): 121 % of control | T/C (endpoint: mean survival time, dose: 8.0 mg/kg/injection, schedule: Q01DX009 (ip), vehicle: saline): 121 % of control | T/C (endpoint: mean survival time, dose: 8.0 mg/kg/injection, schedule: Q01DX009 (sc), vehicle: saline): 108 % of control | T/C (endpoint: mean survival time, dose: 16.0 mg/kg/injection, schedule: Q01DX001 (ip), vehicle: saline): 113 % of control | T/C (endpoint: mean survival time, dose: 16.0 mg/kg/injection, schedule: Q01DX001 (sc), vehicle: saline): 105 % of control | T/C (endpoint: mean survival time, dose: 16.0 mg/kg/injection, schedule: Q04DX003 (ip), vehicle: saline): 120 % of control | T/C (endpoint: mean survival time, dose: 16.0 mg/kg/injection, schedule: Q08DX002 (ip), vehicle: saline): 103 % of control | T/C (endpoint: mean survival time, dose: 32.0 mg/kg/injection, schedule: Q01DX001 (sc), vehicle: saline): 108 % of control | T/C (endpoint: mean survival time, dose: 32.0 mg/kg/injection, schedule: Q01DX009 (ip), vehicle: saline): 194 % of control | T/C (endpoint: mean survival time, dose: 32.0 mg/kg/injection, schedule: Q08DX002 (ip), vehicle: saline): 120 % of control | T/C (endpoint: mean survival time, dose: 64.0 mg/kg/injection, schedule: Q01DX001 (ip), vehicle: saline): 152 % of control | T/C (endpoint: mean survival time, dose: 64.0 mg/kg/injection, schedule: Q01DX001 (sc), vehicle: saline): 122 % of control | T/C (endpoint: mean survival time, dose: 64.0 mg/kg/injection, schedule: Q01DX009 (ip), vehicle: saline): 92 % of control | T/C (endpoint: mean survival time, dose: 64.0 mg/kg/injection, schedule: Q01DX009 (sc), vehicle: saline): 88 % of control | T/C (endpoint: mean survival time, dose: 64.0 mg/kg/injection, schedule: Q04DX003 (ip), vehicle: saline): 175 % of control | T/C (endpoint: mean survival time, dose: 64.0 mg/kg/injection, schedule: Q08DX002 (ip), vehicle: saline): 156 % of control | T/C (endpoint: mean survival time, dose: 128.0 mg/kg/injection, schedule: Q01DX001 (ip), vehicle: saline): 201 % of control | T/C (endpoint: mean survival time, dose: 128.0 mg/kg/injection, schedule: Q04DX003 (ip), vehicle: saline): 88 % of control | T/C (endpoint: mean survival time, dose: 128.0 mg/kg/injection, schedule: Q08DX002 (ip), vehicle: saline): 190 % of control

COC1C(O)C(C)OC(OC2C(Oc3cccc4c(O)c5c(=O)oc6ccc(C)c7c(=O)oc(c34)c5c67)OC(C)C(O)C2O)C1O (centres undefined)
T/C (endpoint: mean survival time, dose: 5.0 mg/kg/injection, schedule: Q01DX009 (ip), vehicle: saline with Tween-80): 116 % of control | T/C (endpoint: mean survival time, dose: 10.0 mg/kg/injection, schedule: Q01DX009 (ip), vehicle: saline with Tween-80): 115 % of control | T/C (endpoint: mean survival time, dose: 20.0 mg/kg/injection, schedule: Q01DX009 (ip), vehicle: saline with Tween-80): 116 % of control | T/C (endpoint: mean survival time, dose: 80.0 mg/kg/injection, schedule: Q01DX009 (ip), vehicle: saline with Tween-80): 123 % of control

Cc1ccccc1N1C(=O)CSC1=S
T/C [3]: 98 % of control | T/C [4]: 106 % of control

O=C(O)CCc1nc(-c2cccc(Br)c2)n[nH]1
T/C [6]: 96 % of control | T/C [7]: 107 % of control | T/C [8]: 103 % of control

O=C1C=CC(=O)N1c1ccccc1[N+](=O)[O-]
T/C (endpoint: mean survival time, dose: 3.0 mg/kg/injection, schedule: Q01DX009 (ip), vehicle: saline with Tween-80): 96 % of control | T/C (endpoint: mean survival time, dose: 6.0 mg/kg/injection, schedule: Q01DX009 (ip), vehicle: saline with Tween-80): 100 % of control | T/C (endpoint: mean survival time, dose: 6.25 mg/kg/injection, schedule: Q04DX003 (ip), vehicle: saline with Tween-80): 100 % of control | T/C (endpoint: mean survival time, dose: 12.0 mg/kg/injection, schedule: Q01DX009 (ip), vehicle: saline with Tween-80): 97 % of control | T/C (endpoint: mean survival time, dose: 12.5 mg/kg/injection, schedule: Q04DX003 (ip), vehicle: saline with Tween-80): 97 % of control

C=CC(C)(C)S(=O)[O-].C[c-]1[c-][c-][c-][c-]1.[C-]#[O+].[C-]#[O+].[Fe+6]
T/C (endpoint: mean survival time, dose: 50.0 mg/kg/injection, schedule: Q04DX002 (ip), vehicle: saline): 109 % of control | T/C (endpoint: mean survival time, dose: 100.0 mg/kg/injection, schedule: Q04DX002 (ip), vehicle: saline): 102 % of control
